From article PMC9743128, “Phenotype-based screening rediscovered benzopyran-embedded microtubule inhibitors as anti-neuroinflammatory agents by modulating the tubulin–p65 interaction” (Experimental & Molecular Medicine, 2022)
Where two headings read alike, the source gives them in different places.

What was measured:
[1] = system: LPS-mediated NO release in BV-2 microglial cells; test: Griess assay: cellular NO release after LPS treatment; format: cell-based, murine; conditions: for IC50: 100 ng/mL LPS, 24 h
Method: Cellular secretion of nitric oxide (NO) was quantified with the Griess assay. BV-2 cells were seeded on a clear flat bottom TC-treated 96-well plate (Corning; #3598) and sealed with breathable sealing tape (Axygen; BF-400-S). After 18 h, BV-2 cells were treated with compounds in the absence or presence of 100 ng/mL LPS (Sigma; L4391). After 24 h, 50 μL of the cell culture media was mixed with the same volume of Griess reagent {0.1% naphthylethylenediamine dihydrochloride (Sigma; #222488) and 1% sulfanilamide (Sigma; S9251) in 4% phosphoric acid (Daejung; #6532-4405)}. Absorbance at 550 nm was measured using a microplate reader (BioTek; Synergy). Sodium nitrite (Alfa Aesar; A18668) was used for standard curve generation.
Microglia are tissue-resident macrophages involved in CNS immunosurveillance[3],[39]. Microglial activation induces proinflammatory cytokine tumor necrosis factor α (TNF-α) expression, resulting in neural toxicity[5],[6]. Therefore, the inhibition of microglial activation is critical for regulating neuroinflammation. To discover anti-neuroinflammatory NCEs, we monitored the cellular release of nitric oxide (NO) in response to lipopolysaccharide (LPS) treatment as a mimic of pathogenic activation of innate immune systems upon compound treatment in BV-2 cells using the Griess assay.

BV-2 cells = test: Cell viability assay (EZ-Cytox); conditions: 10 μM
Method: (§1) A total of 40,000 cells were seeded on a 96-well plate and incubated for 18 h. After 6-, 12- and 24-h compound treatment, 10 μL of EZ-Cytox solution (Dogen; EZ-BULK150) was added to the 96-well plate. After 30 min, the absorbance at 455 nm was measured using a microplate reader (BioTek; Synergy).
(§2) (n=6). Data are presented as the mean ± SD.

tubulin [2] = target: T1, tubulin (Homo sapiens, UniProt P07437+P68363); test: Cellular thermal shift assay (CETSA); format: cell-based
T1 construct: endogenous in cells

[3] = Cell viability assay (EZ-Cytox); conditions: mouse, BV-2 microglial cells
Method: as §1, §2

[4] = system: TNF-α secretion in BV-2 cells; test: TNF-α ELISA of culture medium after LPS; format: cell-based, murine; conditions: 10 μM
Method: BV-2 and RAW264.7 cells were treated with compounds in the absence or presence of LPS (100 ng/ml). After 24 h, TNF-α levels in the culture medium were measured using a TNF-α ELISA kit (R&D Systems; DY410) according to the manufacturer’s protocol. Briefly, capture antibodies were coated on 96-well Maxisorp Nunc-Immuno plates (Thermo; #439454) for 1 h and washed with PBS containing 0.05% Tween-20 (PBST) three times. The plates were blocked with 1% BSA-PBS for 1 h and washed with PBST three times. Culture medium was added to the 96-well plate for 1 h and washed with PBST three times. Biotinylated detection antibody was added to the 96-well plate for 1 h and washed with PBST three times. Streptavidin–horseradish peroxidase (HRP) was added to the plate for 20 min and washed with PBST three times. After 20 min of incubation with TMB substrate (Thermo; #002023), TMB oxidation was stopped by adding 2 N H2SO4. The absorbance at 450 nm, 540 nm, and 570 nm was measured using a microplate reader (BioTek; Synergy). The following formula was used to calculate the net signal: OD450nm–(OD540nm + OD570nm)/2.
Fig. 2 SB26019 has anti-inflammatory activity via the accumulation of tubulin monomers. SB26019 (10 μM for 6 h) regulated the mRNA levels (a) and protein levels (b) of downstream genes of NF-κB in BV-2 murine microglial cells more efficiently than the other known tubulin modulators (n = 3). c Both tubulin modulators (10 μM for 6 h) and transient Flag-tagged α-tubulin overexpression increased the total amount of tubulin monomers. d Quantification of the amount of tubulin polymer vs. monomer in (c). Tubulin modulators (10 μM for 6 h) and transient Flag-tagged α-tubulin overexpression proportionally regulated the NF-κB signaling pathway at the mRNA (e) and protein levels f in RAW264.7 murine macrophage cells (n = 3). Data are presented as the mean ± SD (ns, not significant, p > 0.05; *p < 0.05; **p < 0.01; ***p < 0.001).

[5] = system: p65 nuclear translocation in J774A.1 and RAW264.7 cells; test: p65 nuclear translocation by immunofluorescence staining; format: cell-based, murine; conditions: 10 μM for 1 h, then LPS; LPS alone 80%, basal 40%
Method: To monitor p65 translocation, J774A.1 cells were treated with compounds for 1 h, followed by LPS (100 ng/ml) treatment for 30 min. The cells were fixed with 4% paraformaldehyde (Sigma; #158127) in PBS (w/v) for 30 min at room temperature. After washing with 1× PBS (Welgene; ML008-02) three times, the fixed cells were permeabilized with PBS containing 0.1% Triton X-100 for 10 min. The cells were washed with 1× PBS three times and then blocked with 4% bovine serum albumin (MP Biomedicals; #0216006980) in PBS (w/v) for 1 h. The cells were incubated with mouse anti-p65 antibody (Santa Cruz; sc-8008, 1:200 diluted in 1% BSA–PBS) at 4 °C overnight and washed with PBS three times. FITC-labeled goat anti-mouse IgG antibody (Abcam; ab6785, 1:200 diluted in 1% BSA–PBS) was added to the sample and incubated for 1 h at room temperature. The remaining antibodies were finally washed three times with PBS. Nuclei were stained with Hoechst 33342 (Thermo; #62249). The cellular p65 proteins were imaged by fluorescence microscopy (GE Healthcare; Delta Vision) and quantified by the line profiling method.
During activation of the NF-κB signaling pathway, IκB is phosphorylated and degraded by proteasomes. The released p65 from IκB is translocated to the nucleus, inducing the transcription of target genes for inflammatory responses. Therefore, we monitored the translocation of p65 upon SB26019 treatment in J774A.1 and RAW264.7 murine macrophage cells stained with fluorescently labeled antibodies. […]

in vitro = conditions: mouse
Method: as §1, §2

tubulin [6] = target: T2, tubulin (Sus scrofa, UniProt P02550+P02554); test: Tubulin polymerization assay; format: biochemical; conditions: 1 μM compound
T2 construct: purchased Cytoskeleton BK006P
Method: The tubulin polymerization inhibition efficacy of the compounds was measured by a tubulin polymerization assay kit (Cytoskeleton; BK006P) according to the manufacturer’s manual. Absorbance at 340 nm was measured to observe the formation of tubulin polymers using a microplate reader (Biotek; Synergy).
Supplementary Fig. 4. Tubulin polymerization inhibition by compounds 1–13 (1 μM). In the presence or absence of compounds, tubulin was incubated to polymerize at room temperature. Absorbance at 340 nm was measured in a time-dependent manner for monitoring the rate of tubulin polymerization.
Supplementary Table 2. Tubulin polymerization inhibition of the focused library. Tubulin was incubated with each compound (1 μM) and the tubulin polymerization inhibition was monitored. Vmax was calculated from tubulin polymer generation curve data of Supplementary Fig. 3.

[7] = Mus musculus, BV-2 cells, LPS, read-out: % NO inh. at 10 μM

T1 sequence (P07437 whole entry): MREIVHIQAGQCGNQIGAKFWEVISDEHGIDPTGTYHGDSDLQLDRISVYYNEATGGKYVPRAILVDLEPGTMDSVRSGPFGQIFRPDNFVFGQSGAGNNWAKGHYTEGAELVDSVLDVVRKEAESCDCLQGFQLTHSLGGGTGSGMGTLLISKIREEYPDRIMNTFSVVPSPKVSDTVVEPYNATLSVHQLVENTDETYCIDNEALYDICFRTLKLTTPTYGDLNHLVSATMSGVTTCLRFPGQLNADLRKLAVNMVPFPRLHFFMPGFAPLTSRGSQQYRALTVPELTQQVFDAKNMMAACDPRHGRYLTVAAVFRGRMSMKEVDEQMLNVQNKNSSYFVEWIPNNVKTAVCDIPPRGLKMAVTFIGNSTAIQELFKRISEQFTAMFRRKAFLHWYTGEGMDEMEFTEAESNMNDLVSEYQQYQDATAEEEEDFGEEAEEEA
T1 sequence (P68363 whole entry): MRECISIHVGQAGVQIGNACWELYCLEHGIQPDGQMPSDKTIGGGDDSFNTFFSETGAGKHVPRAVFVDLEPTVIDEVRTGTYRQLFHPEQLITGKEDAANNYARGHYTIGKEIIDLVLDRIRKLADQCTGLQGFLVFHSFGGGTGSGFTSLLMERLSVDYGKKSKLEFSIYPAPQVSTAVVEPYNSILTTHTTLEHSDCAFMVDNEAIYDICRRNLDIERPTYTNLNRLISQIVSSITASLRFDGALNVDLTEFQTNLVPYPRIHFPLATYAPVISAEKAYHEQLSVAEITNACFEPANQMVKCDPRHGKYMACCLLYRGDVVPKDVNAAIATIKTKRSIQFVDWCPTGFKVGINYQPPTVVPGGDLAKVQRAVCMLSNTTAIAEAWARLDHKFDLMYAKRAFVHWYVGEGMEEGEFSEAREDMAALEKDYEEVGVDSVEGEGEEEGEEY
T2 sequence (P02554 whole entry): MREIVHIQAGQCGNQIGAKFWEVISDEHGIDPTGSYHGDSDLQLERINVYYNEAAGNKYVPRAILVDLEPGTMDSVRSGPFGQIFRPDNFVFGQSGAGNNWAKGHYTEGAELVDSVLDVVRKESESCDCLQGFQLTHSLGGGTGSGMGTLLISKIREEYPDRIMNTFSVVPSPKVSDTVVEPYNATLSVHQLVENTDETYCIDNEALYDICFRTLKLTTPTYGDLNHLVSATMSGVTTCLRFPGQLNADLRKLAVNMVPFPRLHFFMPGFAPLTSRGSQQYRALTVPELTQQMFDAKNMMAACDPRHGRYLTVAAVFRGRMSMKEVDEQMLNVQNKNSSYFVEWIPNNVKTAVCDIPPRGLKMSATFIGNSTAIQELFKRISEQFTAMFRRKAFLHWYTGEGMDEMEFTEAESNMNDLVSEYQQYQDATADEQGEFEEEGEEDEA
T2 sequence (P02550 whole entry): as the sequence (P68363 whole entry) above, with L136S, S232G, I265A, S340T, Q358E counted along it

COc1ccc2c(c1O)OC(C)(C)C=C2c1cccc2c1Sc1ccccc1S2 [Compound 10]
% NO inh. at 10 μM ([1]; BV-2 cells, LPS): 36.8%
IC50 ([1]; BV-2 cells): 13.1 µM
% Viab. at 10 μM (BV-2 cells): 102.1%

COc1ccc2c(c1O)OC(C)(C)C=C2c1cc(C)ccc1C [Compound 5]
% NO inh. at 10 μM ([1]; BV-2 cells, LPS): 46.9%
IC50 ([1]; BV-2 cells): 9.89 µM
% Viab. at 10 μM (BV-2 cells): 99.7%

COc1ccc2c(c1O)OC(C)(C)C=C2c1cccc(-c2ccccc2)c1 [Compound 11]
% NO inh. at 10 μM ([1]; BV-2 cells, LPS): 61.6%
IC50 ([1]; BV-2 cells): 6.71 µM
% Viab. at 10 μM (BV-2 cells): 106.1%

COc1ccc2c(c1O)OC(C)(C)C=C2c1ccc(Cl)cc1C [Compound 1]
inhibition at 10 µM [1, 7]: 69.4%
inhibition at 10 µM ([1]; Mus musculus, BV-2 microglial cells, read-out: LPS-mediated NO release inhibited down to): 70%
IC50 ([1]; Mus musculus, BV-2 cells): 5.22 µM
Thermal shift of tubulin in CETSA (tubulin [2]): slight thermal sensitization
viability at 10 µM [3]: 102%

COc1cc2c(c(OC)c1OC)-c1ccc(OC)c(=O)cc1[C@@H](NC(C)=O)CC2 [Colchicine]
inhibition at 10 µM [1, 7]: 51.8%
TNF-α levels compared to that of the DMSO control [4]: < 50%
p65 nuclear translocation in the presence of LPS [5]: < 60%
viability at 10 µM (in vitro): 114%

COc1ccc2c(c1O)OC(C)(C)C=C2c1cccc2c1sc1ccccc12 [Compound 9]
% NO inh. at 10 μM ([1]; BV-2 cells, LPS): 90.0%
IC50 ([1]; BV-2 cells): 1 µM
% Viab. at 10 μM (BV-2 cells): 103.6%

CCOC(=O)CCC1(C)C=C(c2ccc(Cl)cc2C)c2ccc(OC)c(O)c2O1 (stereo not drawn) [Compound 12]
% NO inh. at 10 μM ([1]; BV-2 cells, LPS): 72.3%
IC50 ([1]; BV-2 cells): 7.45 µM
% Viab. at 10 μM (BV-2 cells): 105.6%

COc1ccccc1C1=CC(C)(C)Oc2c1ccc(OC)c2O [Compound 6]
% NO inh. at 10 μM ([1]; BV-2 cells, LPS): 87.1%
IC50 ([1]; BV-2 cells): 5.09 µM
% Viab. at 10 μM (BV-2 cells): 113.8%

CCOC(=O)CCC1(C)C=C(c2cccc3c2oc2ccccc23)c2ccc(OC)c(O)c2O1 (stereo not drawn) [Compound 13]
% NO inh. at 10 μM ([1]; BV-2 cells, LPS): 101.2%
IC50 ([1]; BV-2 cells): 1.79 µM
% Viab. at 10 μM (BV-2 cells): 111.4%

COc1ccc2c(c1O)OC(C)(C)C=C2c1ccccc1C [Compound 4]
% NO inh. at 10 μM ([1]; BV-2 cells, LPS): 73.3%
IC50 ([1]; BV-2 cells): 7.19 µM
% Viab. at 10 μM (BV-2 cells): 106.1%

COC(=O)Nc1nc2ccc(C(=O)c3cccs3)cc2[nH]1 [Nocodazole, reference compound]
inhibition at 10 µM [1, 7]: 54.9%
IC50 ([1]; Mus musculus, BV-2 cells): 13.4 µM
TNF-α levels compared to that of the DMSO control [4]: < 50%
p65 nuclear translocation in the presence of LPS [5]: < 60%
Vmax of microtubule polymerization compared to DMSO control (tubulin [6]): reduced Vmax
viability at 10 µM [3]: 93.8%

COc1ccc2c(c1O)OC(C)(C)C=C2c1ccc(F)cc1 [Compound 3]
% NO inh. at 10 μM ([1]; BV-2 cells, LPS): 9.9%
IC50 ([1]; BV-2 cells): 22.3 µM
% Viab. at 10 μM (BV-2 cells): 88.0%

COc1ccc2c(c1O)OC(C)(C)C=C2c1cccc2cccnc12 [Compound 7]
% NO inh. at 10 μM ([1]; BV-2 cells, LPS): 98.0%
IC50 ([1]; BV-2 cells): 5.01 µM
% Viab. at 10 μM (BV-2 cells): 101.5%

COc1ccc2c(c1O)OC(C)(C)C=C2c1ccc(F)cc1C [Compound 2]
% NO inh. at 10 μM ([1]; BV-2 cells, LPS): 65.3%
IC50 ([1]; BV-2 cells): 5.94 µM
% Viab. at 10 μM (BV-2 cells): 105.3%
